This passage reports GI50 and TGI results from PubChem BioAssay (NCI).

Test systems include SF-268 CNS; SK-MEL-2 melanoma; SNB-19 CNS; A549 NSCLC; U251 CNS; UACC-62 melanoma; COLO 205 colon; IGROV1 ovarian; SF-295 CNS; MOLT-4 leukemia.
Test in all cases: NCI anticancer screen, dose series, 48 h

Several values for one entry are separate records, joined by “and”; a condition that tells them apart may be missing. Equal values may be shown once.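 Five compound concentrations were applied to cells in 96-well plates for 48 hours; endpoints were derived by simple linear interpolation of the resulting dose-response curve. GI50 marks 50% less growth. TGI denotes the concentration required for complete inhibition of growth.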

`Clc1ccc(Nc2ncnc3c2sc2ncccc23)c(Cl)c1`: the GI50 in the assay with SF-268 CNS is 24.6 nM; with SK-MEL-2 melanoma, 30.7 µM; in the assay with SNB-19 CNS, less than 12.1 nM; in the assay with A549 NSCLC, less than 0.01 µM; in the assay on U251 CNS, 15.2 nM; with UACC-62 melanoma it was 27.9 nM. Further, the GI50 in the assay with COLO 205 colon is 57.3 nM; in the assay on IGROV1 ovarian, more than 100000 nM; in the assay with SF-295 CNS, 30.9 nM; in the assay on MOLT-4 leukemia it was 38.2 nM. For the same molecule, the TGI in the assay with SF-268 CNS was more than 100 µM; with SK-MEL-2 melanoma it was more than 100 µM; with SNB-19 CNS, more than 100 µM; in the assay on A549 NSCLC, more than 100 µM; in the assay on U251 CNS, more than 100 µM; in the assay with UACC-62 melanoma, 8.37 µM. Moreover, the TGI with COLO 205 colon was more than 25.8 µM; with IGROV1 ovarian, more than 100 µM; with SF-295 CNS, more than 100 µM; in the assay with MOLT-4 leukemia, more than 100 µM.

Regarding `O=C1Nc2c(ccc(Cl)c2Cl)/C1=C\c1cc(C(F)(F)F)cc(C(F)(F)F)c1`, the GI50 with SF-268 CNS was 1860 nM; in the assay with SK-MEL-2 melanoma it was 4.11 µM; in the assay with SNB-19 CNS it was 5700 nM; in the assay on A549 NSCLC it was 4.81 µM; in the assay on U251 CNS, 1150 nM; in the assay on UACC-62 melanoma, 1770 nM. The GI50 in the assay with COLO 205 colon was 1320 nM; with IGROV1 ovarian, 222 nM; with SF-295 CNS it was 1920 nM; with MOLT-4 leukemia, 2090 nM. The TGI worked out at 8.51 µM with SF-268 CNS; 10.9 µM in the assay on SK-MEL-2 melanoma; 19.3 µM in the assay with SNB-19 CNS; 13 µM in the assay with A549 NSCLC; 3.22 µM in the assay on U251 CNS; 7.41 µM in the assay with UACC-62 melanoma. For the same molecule, the TGI in the assay on COLO 205 colon was 4.84 µM; in the assay with IGROV1 ovarian, 3.52 µM; in the assay with SF-295 CNS it was 8.02 µM; in the assay with MOLT-4 leukemia, 4.68 µM.

As for `Nc1nc(Cl)nc2c1ncn2C1OC(CO)C(O)C1O` (stereo not drawn), the GI50 with SF-268 CNS was 10700 nM; in the assay on SK-MEL-2 melanoma it was more than 100 µM; in the assay with SNB-19 CNS, 2720 nM; in the assay with A549 NSCLC, 4.41 µM; in the assay with U251 CNS, 13200 nM; in the assay on UACC-62 melanoma it was 5700 nM. The GI50 in the assay on COLO 205 colon was 5760 nM; in the assay with IGROV1 ovarian, more than 100000 nM; in the assay with SF-295 CNS, more than 100000 nM; with MOLT-4 leukemia it was 493 nM. The TGI in the assay with SF-268 CNS, in the assay with SK-MEL-2 melanoma, in the assay on SNB-19 CNS, in the assay with A549 NSCLC, with U251 CNS and in the assay on UACC-62 melanoma was more than 100 µM each time. Besides, the TGI is more than 100 µM with COLO 205 colon, more than 100 µM in the assay with IGROV1 ovarian, more than 100 µM with SF-295 CNS and more than 41.2 µM with MOLT-4 leukemia.

Regarding `COc1ccc(Nc2ncccc2C(=O)NCc2cn(Cc3cccc(Oc4ccccc4)c3)nn2)c(OC)c1`, the GI50 in the assay with SF-268 CNS is 3340 nM; in the assay on SK-MEL-2 melanoma, 5.03 µM; in the assay on SNB-19 CNS, 3640 nM; with A549 NSCLC it was 3.7 µM; in the assay with U251 CNS it was 3190 nM; in the assay with UACC-62 melanoma, 1190 nM. Moreover, the GI50 in the assay with COLO 205 colon was 2110 nM; in the assay with IGROV1 ovarian, 5180 nM; in the assay on SF-295 CNS it was 552 nM; in the assay on MOLT-4 leukemia, 4020 nM. Further, the TGI is more than 100 µM in the assay with SF-268 CNS; more than 100 µM with SK-MEL-2 melanoma; more than 100 µM in the assay with SNB-19 CNS; more than 100 µM with A549 NSCLC; more than 100 µM in the assay with U251 CNS; more than 29.6 µM with UACC-62 melanoma. For the same molecule, the TGI in the assay with COLO 205 colon was 5.7 µM; in the assay with IGROV1 ovarian, more than 100 µM; in the assay with SF-295 CNS it was 22.2 µM; in the assay on MOLT-4 leukemia it was more than 100 µM.

`O=C1c2ccccc2-c2ccccc2C1(Cl)Cl`: the GI50 with SF-268 CNS was 1280 nM; in the assay with SK-MEL-2 melanoma it was 1.52 µM; in the assay with SNB-19 CNS, 1840 nM; with A549 NSCLC, 1.49 µM; in the assay with U251 CNS it was 314 nM; with UACC-62 melanoma, 1660 nM. Also, the GI50 in the assay with COLO 205 colon was 1810 nM; in the assay with IGROV1 ovarian it was 1130 nM; in the assay on SF-295 CNS, 1270 nM; in the assay on MOLT-4 leukemia, 2190 nM. Also, the TGI with SF-268 CNS turned out to be 2.59 µM; in the assay on SK-MEL-2 melanoma, 3.02 µM; in the assay on SNB-19 CNS, 4.66 µM; in the assay on A549 NSCLC, 3.21 µM; with U251 CNS it was 1.07 µM; in the assay with UACC-62 melanoma it was 3.34 µM. Also, the TGI amounted to 3.47 µM in the assay on COLO 205 colon, 2.54 µM in the assay with IGROV1 ovarian, 3 µM in the assay on SF-295 CNS and 7.09 µM in the assay with MOLT-4 leukemia.

In the case of `COc1cc([C@@H]2c3cc4c(cc3[C@@H](NC(=O)c3ccc(OC(C)=O)cc3)C3COC(=O)[C@@H]32)OCO4)cc(OC)c1O` (stereo partly drawn), the TGI in the assay with SF-268 CNS is more than 100 µM; in the assay on SK-MEL-2 melanoma, 16.6 µM; with SNB-19 CNS, more than 100 µM; in the assay on A549 NSCLC, 10.6 µM; with U251 CNS, 2.75 µM; in the assay with UACC-62 melanoma, 3.14 µM. Besides, the TGI in the assay on COLO 205 colon came to 35.7 µM; with IGROV1 ovarian, 7.77 µM; with SF-295 CNS it was 50.9 µM; in the assay with MOLT-4 leukemia it was 2.93 µM.

As for `Cc1nc(-n2nc(-c3ccccc3)cc2-c2ccccc2)sc1C(/C=C/c1ccc([N+](=O)[O-])cc1)=N/NC(N)=S`, the TGI in the assay with SF-268 CNS, with SK-MEL-2 melanoma, in the assay with SNB-19 CNS, with A549 NSCLC, with U251 CNS and in the assay with UACC-62 melanoma was more than 100 µM in each case. Moreover, the TGI in the assay with COLO 205 colon was more than 100 µM; in the assay with IGROV1 ovarian, more than 100 µM; in the assay with SF-295 CNS, more than 100 µM; in the assay with MOLT-4 leukemia it was 81.4 µM.

As for `O=C(NC(Cc1ccccc1)C(=O)CCl)OCc1ccccc1` (stereo not drawn), the GI50 with SF-268 CNS was 4360 nM; with SK-MEL-2 melanoma it was 1.96 µM; in the assay with A549 NSCLC, 13.9 µM; in the assay on U251 CNS it was 6970 nM; in the assay on UACC-62 melanoma, 4520 nM; in the assay with COLO 205 colon, 10000 nM. The GI50 with IGROV1 ovarian was 2980 nM; in the assay with MOLT-4 leukemia, 3560 nM. The TGI in the assay with SF-268 CNS was 16.3 µM and 26.3 µM; in the assay with SK-MEL-2 melanoma it was 4.89 µM and 22 µM; in the assay on SNB-19 CNS it was 25.3 µM and 25.1 µM; with A549 NSCLC, 33.9 µM and 36.2 µM; with U251 CNS, 19.6 µM and 22.8 µM; in the assay on UACC-62 melanoma, 17.7 µM and 21.2 µM. For the same molecule, the TGI is 24.1 µM and 24 µM in the assay with COLO 205 colon; 13.6 µM and 27.3 µM in the assay with IGROV1 ovarian; 33 µM and 29.2 µM in the assay on SF-295 CNS; 25.4 µM in the assay on MOLT-4 leukemia.
